Experimental data as given in ChEMBL document CHEMBL1201862, “PubChem BioAssay data set” (2004).
Calls of active or inactive are those of the source.

Key:
[1] = restored growth of temperature-sensitive Burl-1 yeast – whole organism, S. cerevisiae, Burl-1 ts mutant, luminescence, counter-screen for SUMOylation pathway inhibitor project, dose response (AID 463199); type: functional
[2] = test system: A-375; assay: MITF: Counter assay: A375 proliferation Measured in Cell-Based System Using Plate Reader - 2084-03_Inhibitor_Dose_DryPowder_Activity. [Related pubchem assays (depositor defined):AID488944]; type: functional; conditions: Homo sapiens
[3] = test system: A-375; assay: proliferation inhibition in MITF-low A375 cells – cell-based, cherry-pick samples, set 2, counter-screen for MITF modulator project, dose response (AID 540335); type: functional; conditions: Homo sapiens
[4] = target: Lysine-specific demethylase 4A (Homo sapiens, UniProt O75164); assay: inhibition of JMJD2A H3K9me3 demethylation – biochemical, DELFIA europium, cherry-picked samples, selectivity assay for GASC-1 inhibitor project, dose response (AID 488840)
[5] = target: Lysine-specific demethylase 4C (Homo sapiens, UniProt Q9H3R0); assay: inhibition of JMJD2C H3K9me3 demethylation – biochemical, DELFIA europium, cherry-picked samples, dose response (AID 488835); type: functional
[6] = test system: Vero; assay: viability of Vero cells under compound – cytotoxicity control for flavivirus capping enzyme inhibitors (AID 588742); type: functional; conditions: Chlorocebus sabaeus
[7] = target: Genome polyprotein (dengue virus type 2, UniProt P29990); assay: flavivirus cap methylation enzyme inhibition – biochemical, confirmation dose response, primary screen (AID 588689); type: functional
[8] = target: T1, Corticotropin-releasing factor receptor 2/Corticotropin-releasing factor-binding protein (Homo sapiens, UniProt P24387+Q13324); assay: Dose Response confirmation of uHTS hits for small molecule antagonists of the CRF-binding protein and CRF-R2 receptor complex.; type: functional; conditions: read-out: IC50_Mean
T1 sequence (Q13324 whole entry): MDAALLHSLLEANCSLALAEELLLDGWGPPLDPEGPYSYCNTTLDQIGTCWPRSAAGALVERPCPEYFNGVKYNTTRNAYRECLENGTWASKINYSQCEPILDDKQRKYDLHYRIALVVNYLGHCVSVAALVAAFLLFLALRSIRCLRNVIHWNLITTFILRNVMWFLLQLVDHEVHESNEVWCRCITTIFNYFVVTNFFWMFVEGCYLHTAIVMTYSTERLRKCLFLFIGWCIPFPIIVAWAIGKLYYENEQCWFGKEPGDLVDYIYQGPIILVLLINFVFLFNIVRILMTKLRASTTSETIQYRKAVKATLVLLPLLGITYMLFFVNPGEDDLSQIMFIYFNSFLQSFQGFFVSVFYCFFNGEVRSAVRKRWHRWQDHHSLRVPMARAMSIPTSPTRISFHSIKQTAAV
T1 sequence (P24387 whole entry): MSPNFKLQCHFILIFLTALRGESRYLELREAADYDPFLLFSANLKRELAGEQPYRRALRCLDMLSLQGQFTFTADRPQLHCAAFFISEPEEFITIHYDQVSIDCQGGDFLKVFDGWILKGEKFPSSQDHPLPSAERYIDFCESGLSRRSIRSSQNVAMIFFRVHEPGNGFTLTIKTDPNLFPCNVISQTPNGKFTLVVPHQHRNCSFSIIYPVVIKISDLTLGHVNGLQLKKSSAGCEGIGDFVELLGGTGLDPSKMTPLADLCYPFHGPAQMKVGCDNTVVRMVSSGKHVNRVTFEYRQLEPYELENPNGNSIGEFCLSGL

[9] = target: T1, Corticotropin-releasing factor receptor 2/Corticotropin-releasing factor-binding protein; assay: activators of CRF receptor 2 with binding protein – uHTS hits, confirmation (AID 602473); type: functional; conditions: read-out: EC50_Mean
[10] = target: NAD-dependent protein deacylase sirtuin-5, mitochondrial (Homo sapiens, UniProt Q9NXA8); assay: sirtuin-5 deacylation blockers, concentration series – biochemical, fluorescence imaging, cherry-pick, set 5, dose response (AID 720591);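 further: desuccinylation of succinyl peptide AMC substrate read as fluorescence after trypsin release; potency of inhibitors that lower fluorescence and may act on trypsin instead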
[11] = target: T2, Mannose-6-phosphate isomerase (Homo sapiens, UniProt P34949); assay: phosphomannose isomerase inhibition – biochemical, fluorescence intensity, confirmation (AID 1535)
T2 sequence (P34949 whole entry): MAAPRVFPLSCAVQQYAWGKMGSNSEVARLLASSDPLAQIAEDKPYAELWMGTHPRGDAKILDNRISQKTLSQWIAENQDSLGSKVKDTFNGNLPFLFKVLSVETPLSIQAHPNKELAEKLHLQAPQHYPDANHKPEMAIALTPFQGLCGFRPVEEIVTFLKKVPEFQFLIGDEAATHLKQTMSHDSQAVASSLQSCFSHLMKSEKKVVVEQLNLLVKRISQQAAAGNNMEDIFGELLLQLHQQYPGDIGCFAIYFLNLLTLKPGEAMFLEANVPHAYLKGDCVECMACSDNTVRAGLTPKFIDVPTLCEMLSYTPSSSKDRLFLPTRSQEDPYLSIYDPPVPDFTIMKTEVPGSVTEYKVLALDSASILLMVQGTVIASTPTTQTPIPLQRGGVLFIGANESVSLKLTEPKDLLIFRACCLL

[12] = target: Phosphomannomutase 2 (Homo sapiens, UniProt O15305); assay: Counter screen SAR assay for PMM2 inhibitors via a fluorescence intensity assay. [Related pubchem assays (depositor defined):AID1545, AID1574]
[13] = target: Phosphoethanolamine/phosphocholine phosphatase (Homo sapiens, UniProt Q8TCT1); assay: SAR assay for compounds that inhibit PHOSPHO1. [Related pubchem assays (depositor defined):AID1545, AID1565, AID1574]
[14] = T. cruzi infection blockers in NIH3T3 cells – beta-gal luminescence, NIH3T3 host cells, confirmation (AID 2630); type: functional, cell-based; conditions: Mus musculus
[15] = test system: INS1; assay: beta-cell survival under cytokine stress – INS-1E, ATP luminescence, dry powder, dose response (AID 488844); type: functional, cell-based; conditions: Rattus norvegicus
[16] = luciferase reporter signal suppression in cells – H4 neuroglioma cells, luminescence, dose response (AID 1990); type: functional, cell-based
[17] = target: T3, Dual specificity protein phosphatase 3 (Homo sapiens, UniProt P51452); assay: VHR1 phosphatase inhibitors, primary screen, biochemical, absorbance, uHTS (AID 1654)
[18] = target: T4, Tyrosine-protein phosphatase non-receptor type 7 (Homo sapiens, UniProt P35236); type: functional
T4 sequence (P35236 whole entry): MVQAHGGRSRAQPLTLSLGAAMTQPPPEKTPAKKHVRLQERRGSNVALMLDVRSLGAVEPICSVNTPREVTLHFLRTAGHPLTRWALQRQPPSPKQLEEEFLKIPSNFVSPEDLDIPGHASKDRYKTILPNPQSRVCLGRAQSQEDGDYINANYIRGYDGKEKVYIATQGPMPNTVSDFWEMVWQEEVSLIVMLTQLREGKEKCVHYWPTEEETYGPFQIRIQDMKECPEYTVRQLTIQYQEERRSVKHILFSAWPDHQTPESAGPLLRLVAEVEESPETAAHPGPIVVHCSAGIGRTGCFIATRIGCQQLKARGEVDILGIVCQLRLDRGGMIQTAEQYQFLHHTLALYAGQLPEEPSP

[19] = Luminescence Cell-Based Dose Response HTS to Identify Inhibitors of 5'UTR Stem-Loop Driven Prion Protein mRNA Translation in H4 Neuroglioblastoma Cells. [Related pubchem assays: 1827 (Project Summary), 1813 (Primary HTS)]; type: functional
[20] = alpha-synuclein stem-loop luciferase translation blockers – H4 neuroglioma cells, luminescence, confirmation (AID 1988); type: functional, cell-based
[21] = target: Induced myeloid leukemia cell differentiation protein Mcl-1 (Homo sapiens, UniProt Q07820); assay: blockers of MCL1 binding to BIM peptide – biochemical, fluorescence polarization, BIM-BH3 peptide, 1536-well, dose response (AID 2217)
[22] = target: T3, Dual specificity protein phosphatase 3; assay: VHR1 phosphatase inhibitors, biochemical (AID 1878)
[23] = target: Bcl-2-like protein 1 (Homo sapiens, UniProt Q07817); assay: blockers of BCLXL peptide binding – biochemical, fluorescence polarization, 1536-well, selectivity assay for MCL1 inhibitor project, dose response (AID 2218)
[24] = target: T5, Dual specificity protein phosphatase 6 (Rattus norvegicus, UniProt Q64346); assay: inhibition of rat DUSP6 enzyme activity – biochemical, in vitro, primary screen (AID 425)
T5 sequence (Q64346 whole entry): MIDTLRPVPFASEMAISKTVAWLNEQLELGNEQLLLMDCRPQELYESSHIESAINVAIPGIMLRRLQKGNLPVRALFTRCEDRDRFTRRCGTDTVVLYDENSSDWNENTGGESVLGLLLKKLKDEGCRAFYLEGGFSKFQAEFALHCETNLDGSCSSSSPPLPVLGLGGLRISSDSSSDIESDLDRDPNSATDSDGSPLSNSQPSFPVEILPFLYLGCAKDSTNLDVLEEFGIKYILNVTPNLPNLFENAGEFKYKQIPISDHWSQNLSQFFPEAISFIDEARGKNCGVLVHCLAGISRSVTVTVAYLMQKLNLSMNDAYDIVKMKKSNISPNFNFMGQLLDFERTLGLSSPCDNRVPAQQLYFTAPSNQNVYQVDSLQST

[25] = target: T6, Tyrosine-protein phosphatase non-receptor type 22 (Homo sapiens, UniProt Q9Y2R2); type: functional
T6 sequence (Q9Y2R2 whole entry): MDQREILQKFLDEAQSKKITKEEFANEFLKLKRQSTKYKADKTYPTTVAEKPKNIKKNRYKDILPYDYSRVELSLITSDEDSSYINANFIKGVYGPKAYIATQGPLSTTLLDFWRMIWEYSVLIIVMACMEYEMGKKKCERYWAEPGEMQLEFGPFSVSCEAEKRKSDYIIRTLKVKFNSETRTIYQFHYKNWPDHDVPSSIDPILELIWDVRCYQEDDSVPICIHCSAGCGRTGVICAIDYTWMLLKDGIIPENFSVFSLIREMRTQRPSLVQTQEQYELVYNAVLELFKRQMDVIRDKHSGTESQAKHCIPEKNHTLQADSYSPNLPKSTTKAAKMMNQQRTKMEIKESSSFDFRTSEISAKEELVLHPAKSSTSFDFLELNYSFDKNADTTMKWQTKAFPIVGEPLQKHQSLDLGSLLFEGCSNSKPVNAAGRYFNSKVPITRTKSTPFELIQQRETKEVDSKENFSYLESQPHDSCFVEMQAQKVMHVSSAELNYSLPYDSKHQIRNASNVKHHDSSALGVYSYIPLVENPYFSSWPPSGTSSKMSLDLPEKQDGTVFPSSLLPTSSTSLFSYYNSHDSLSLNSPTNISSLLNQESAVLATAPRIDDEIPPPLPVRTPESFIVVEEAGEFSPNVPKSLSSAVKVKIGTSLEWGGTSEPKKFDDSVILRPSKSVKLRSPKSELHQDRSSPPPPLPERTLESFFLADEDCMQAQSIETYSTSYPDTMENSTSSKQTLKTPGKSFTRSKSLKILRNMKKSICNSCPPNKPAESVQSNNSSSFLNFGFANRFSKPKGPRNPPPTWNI

[26] = target: T6, Tyrosine-protein phosphatase non-receptor type 22; type: functional; remark: listed apart in the source
[27] = test system: INS1; assay: INS-1E survival protection against cytokine death – cell-based, luminescence, retest, dose response (AID 449756); type: functional; conditions: Rattus norvegicus;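 further: cell death triggered by IL-1 beta plus TNF-alpha plus IFN-gamma mixture; protective hits raise ATP signal compared with cytokine alone wells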

T3 sequence (P51452 whole entry): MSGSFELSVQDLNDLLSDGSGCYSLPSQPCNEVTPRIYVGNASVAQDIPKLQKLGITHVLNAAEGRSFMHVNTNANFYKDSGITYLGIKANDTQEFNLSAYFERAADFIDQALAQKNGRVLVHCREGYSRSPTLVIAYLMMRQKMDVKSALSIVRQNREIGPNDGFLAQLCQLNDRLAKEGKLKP
Genome polyprotein, sequence (P29990 2492-3391 limits assumed): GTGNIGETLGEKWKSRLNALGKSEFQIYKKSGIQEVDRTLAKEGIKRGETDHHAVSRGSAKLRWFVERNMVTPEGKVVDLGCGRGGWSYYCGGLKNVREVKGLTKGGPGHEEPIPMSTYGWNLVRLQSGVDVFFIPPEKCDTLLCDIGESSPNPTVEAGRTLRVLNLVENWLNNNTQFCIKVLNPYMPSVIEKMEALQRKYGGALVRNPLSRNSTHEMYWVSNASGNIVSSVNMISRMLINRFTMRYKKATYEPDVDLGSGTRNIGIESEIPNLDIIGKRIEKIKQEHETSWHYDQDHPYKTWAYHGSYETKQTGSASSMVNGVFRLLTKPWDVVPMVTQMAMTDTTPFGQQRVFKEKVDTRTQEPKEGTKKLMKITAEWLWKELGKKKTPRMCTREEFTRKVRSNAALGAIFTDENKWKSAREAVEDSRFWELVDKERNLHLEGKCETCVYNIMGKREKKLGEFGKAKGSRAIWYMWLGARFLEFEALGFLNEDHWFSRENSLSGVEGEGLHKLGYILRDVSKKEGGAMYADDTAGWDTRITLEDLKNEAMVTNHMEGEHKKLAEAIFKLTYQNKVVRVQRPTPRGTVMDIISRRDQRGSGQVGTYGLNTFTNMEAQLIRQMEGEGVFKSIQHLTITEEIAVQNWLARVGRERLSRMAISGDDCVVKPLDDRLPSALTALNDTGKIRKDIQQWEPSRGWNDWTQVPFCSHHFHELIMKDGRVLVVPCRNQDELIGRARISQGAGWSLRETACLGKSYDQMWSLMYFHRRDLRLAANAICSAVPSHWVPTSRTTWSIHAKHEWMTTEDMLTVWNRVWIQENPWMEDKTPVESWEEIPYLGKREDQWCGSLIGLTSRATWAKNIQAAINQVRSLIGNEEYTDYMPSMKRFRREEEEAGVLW
Lysine-specific demethylase 4C, sequence (Q9H3R0 whole entry): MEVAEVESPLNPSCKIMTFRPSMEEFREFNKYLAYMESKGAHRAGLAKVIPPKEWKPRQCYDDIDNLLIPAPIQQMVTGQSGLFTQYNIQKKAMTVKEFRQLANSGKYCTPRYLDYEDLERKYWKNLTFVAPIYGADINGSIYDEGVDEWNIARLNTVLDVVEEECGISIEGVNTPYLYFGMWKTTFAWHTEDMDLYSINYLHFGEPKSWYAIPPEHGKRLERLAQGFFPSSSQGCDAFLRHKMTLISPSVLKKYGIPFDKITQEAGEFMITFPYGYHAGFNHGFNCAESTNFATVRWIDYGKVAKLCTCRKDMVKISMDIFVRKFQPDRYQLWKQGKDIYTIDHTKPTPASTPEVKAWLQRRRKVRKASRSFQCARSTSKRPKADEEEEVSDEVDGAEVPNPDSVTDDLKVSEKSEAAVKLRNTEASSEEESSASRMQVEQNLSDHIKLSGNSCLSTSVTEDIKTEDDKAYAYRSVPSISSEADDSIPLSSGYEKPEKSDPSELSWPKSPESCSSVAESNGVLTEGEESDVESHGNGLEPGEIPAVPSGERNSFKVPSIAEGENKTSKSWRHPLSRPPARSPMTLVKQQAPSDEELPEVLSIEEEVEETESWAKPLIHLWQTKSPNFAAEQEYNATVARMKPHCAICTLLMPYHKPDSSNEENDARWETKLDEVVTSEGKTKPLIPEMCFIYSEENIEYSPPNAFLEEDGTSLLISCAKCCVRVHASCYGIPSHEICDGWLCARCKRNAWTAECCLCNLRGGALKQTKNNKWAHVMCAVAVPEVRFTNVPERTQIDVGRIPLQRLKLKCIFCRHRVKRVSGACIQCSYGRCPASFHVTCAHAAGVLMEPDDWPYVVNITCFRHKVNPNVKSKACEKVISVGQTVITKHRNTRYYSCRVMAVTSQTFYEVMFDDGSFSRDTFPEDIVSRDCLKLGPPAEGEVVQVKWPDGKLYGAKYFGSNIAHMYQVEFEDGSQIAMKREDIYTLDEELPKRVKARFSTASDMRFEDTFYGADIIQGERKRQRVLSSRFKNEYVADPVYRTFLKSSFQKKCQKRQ
Phosphomannomutase 2, sequence (O15305 whole entry): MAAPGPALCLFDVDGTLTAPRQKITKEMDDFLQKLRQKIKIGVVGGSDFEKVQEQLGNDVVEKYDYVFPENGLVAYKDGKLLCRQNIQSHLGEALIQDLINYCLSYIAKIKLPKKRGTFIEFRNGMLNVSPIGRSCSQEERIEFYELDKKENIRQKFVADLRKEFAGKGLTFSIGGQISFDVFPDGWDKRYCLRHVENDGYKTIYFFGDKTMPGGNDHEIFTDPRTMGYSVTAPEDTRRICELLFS
Phosphoethanolamine/phosphocholine phosphatase, sequence (Q8TCT1 whole entry): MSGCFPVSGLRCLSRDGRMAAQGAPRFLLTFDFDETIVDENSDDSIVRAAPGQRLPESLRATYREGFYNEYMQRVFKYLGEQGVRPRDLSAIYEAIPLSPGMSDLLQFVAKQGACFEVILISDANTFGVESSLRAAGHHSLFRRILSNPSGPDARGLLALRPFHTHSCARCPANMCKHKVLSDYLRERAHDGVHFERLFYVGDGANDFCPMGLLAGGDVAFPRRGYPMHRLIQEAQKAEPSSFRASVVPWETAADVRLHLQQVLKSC
NAD-dependent protein deacylase sirtuin-5, mitochondrial, sequence (Q9NXA8 whole entry): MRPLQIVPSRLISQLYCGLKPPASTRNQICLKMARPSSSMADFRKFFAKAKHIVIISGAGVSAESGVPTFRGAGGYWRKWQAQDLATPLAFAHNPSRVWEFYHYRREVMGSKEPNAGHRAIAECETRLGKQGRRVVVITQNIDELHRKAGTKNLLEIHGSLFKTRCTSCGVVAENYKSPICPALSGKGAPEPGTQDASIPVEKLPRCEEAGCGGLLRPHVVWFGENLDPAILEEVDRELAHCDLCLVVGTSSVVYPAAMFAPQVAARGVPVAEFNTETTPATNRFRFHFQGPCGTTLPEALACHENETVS
Lysine-specific demethylase 4A, sequence (O75164 whole entry): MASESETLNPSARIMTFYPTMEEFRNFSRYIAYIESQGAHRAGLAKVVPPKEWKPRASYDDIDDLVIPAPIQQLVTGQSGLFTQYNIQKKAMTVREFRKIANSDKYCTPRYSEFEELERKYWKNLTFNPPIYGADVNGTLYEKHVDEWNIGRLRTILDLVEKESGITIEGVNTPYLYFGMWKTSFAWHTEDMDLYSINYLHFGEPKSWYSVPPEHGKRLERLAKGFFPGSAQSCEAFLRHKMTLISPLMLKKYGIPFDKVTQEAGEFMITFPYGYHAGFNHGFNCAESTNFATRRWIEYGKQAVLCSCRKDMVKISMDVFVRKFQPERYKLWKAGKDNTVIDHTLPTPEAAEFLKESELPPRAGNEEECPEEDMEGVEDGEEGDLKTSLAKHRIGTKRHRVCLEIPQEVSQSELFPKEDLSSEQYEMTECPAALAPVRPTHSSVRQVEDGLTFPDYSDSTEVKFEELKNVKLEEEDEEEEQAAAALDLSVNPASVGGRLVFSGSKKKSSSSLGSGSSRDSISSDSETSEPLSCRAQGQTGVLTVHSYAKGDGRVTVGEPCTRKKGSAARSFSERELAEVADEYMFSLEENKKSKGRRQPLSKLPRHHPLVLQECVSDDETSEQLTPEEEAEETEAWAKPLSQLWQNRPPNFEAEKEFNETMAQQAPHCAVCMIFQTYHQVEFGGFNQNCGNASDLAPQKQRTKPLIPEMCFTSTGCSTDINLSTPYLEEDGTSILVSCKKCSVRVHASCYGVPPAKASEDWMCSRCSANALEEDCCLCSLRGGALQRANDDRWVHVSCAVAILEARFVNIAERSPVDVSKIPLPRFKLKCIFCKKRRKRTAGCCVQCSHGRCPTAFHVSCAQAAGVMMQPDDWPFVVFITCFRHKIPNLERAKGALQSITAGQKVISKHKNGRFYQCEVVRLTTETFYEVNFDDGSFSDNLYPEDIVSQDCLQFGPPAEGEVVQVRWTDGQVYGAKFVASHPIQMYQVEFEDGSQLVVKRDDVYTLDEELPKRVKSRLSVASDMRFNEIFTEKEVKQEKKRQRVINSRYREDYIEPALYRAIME
Bcl-2-like protein 1, sequence (Q07817 whole entry): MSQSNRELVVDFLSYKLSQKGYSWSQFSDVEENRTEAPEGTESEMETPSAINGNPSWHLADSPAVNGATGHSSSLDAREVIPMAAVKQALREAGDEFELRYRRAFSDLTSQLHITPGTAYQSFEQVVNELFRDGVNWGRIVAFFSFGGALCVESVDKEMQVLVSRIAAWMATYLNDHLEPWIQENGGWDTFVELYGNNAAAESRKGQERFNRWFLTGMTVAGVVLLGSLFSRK
Induced myeloid leukemia cell differentiation protein Mcl-1, sequence (Q07820 whole entry): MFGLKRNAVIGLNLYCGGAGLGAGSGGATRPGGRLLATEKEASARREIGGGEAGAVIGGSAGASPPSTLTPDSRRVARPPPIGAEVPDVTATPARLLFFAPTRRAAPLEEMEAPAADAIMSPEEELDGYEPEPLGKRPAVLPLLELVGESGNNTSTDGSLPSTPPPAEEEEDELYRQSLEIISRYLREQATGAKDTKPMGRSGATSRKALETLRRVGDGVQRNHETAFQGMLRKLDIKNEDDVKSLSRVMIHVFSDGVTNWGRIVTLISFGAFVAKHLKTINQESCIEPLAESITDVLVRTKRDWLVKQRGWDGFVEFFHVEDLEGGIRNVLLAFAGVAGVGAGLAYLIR

C=CCN(C(=O)CNC(=O)c1ccco1)C(C(=O)NC1CCCCC1)c1ccccc1 (configuration not stated)
AC50 [1]: 101 µM (active)

O=C(NCCNc1ccccc1[N+](=O)[O-])c1cc(F)c(F)cc1Cl
AC50 [2]: > 11 µM (active) | AC50 [3]: > 11 µM (active)

CCc1ccc([C@@H]2CC=C(C(=O)O)[C@H](c3ccc(C(C)(C)C)cc3)N2S(=O)(=O)c2ccc(C)cc2)cc1
AC50 [4]: 9.31 µM (active) | AC50 [5]: 14.8 µM (active) | CC50 [6]: > 40 µM (active) | IC50 [7]: 37 µM (active) | IC50 [8]: < 0.368 µM (active) | EC50 [9]: 27.8 µM (active) | AC50 [10]: 13.5 µM (active)

O=C1c2ccccc2C(=O)c2c1ccc1c(=O)n(-c3ccccc3)sc21
IC50 [11]: > 50 µM (inactive) | IC50 [12]: > 100 µM (inactive) | IC50 [13]: 1.96 µM (inactive)

COc1ccc(C(=O)C2CCCN(CC3CCCCC3)C2)cc1OC (configuration not stated)
EC50 [14]: 0.452 µM (active)

C[C@@H]1CN([C@H](C)CO)C(=O)c2cccc(NC(=O)Nc3ccccc3)c2O[C@H]1CN(C)S(=O)(=O)c1ccc(F)cc1
AC50 [15]: 38.3 µM (active)

COc1cccc(/C=N/NC(=O)c2cc3cc([N+](=O)[O-])ccc3s2)c1O
EC50 [16]: 7.1 µM (active) | IC50 [17]: 25.2 µM (active) | IC50 [18]: 14.9 µM (active) | EC50 [19]: 9.8 µM (active) | EC50 [20]: 7.86 µM (active) | IC50 [21]: 2.02 µM (active) | IC50 [22]: 5.31 µM (active) | IC50 [23]: > 109 µM (not active) | IC50 [24]: 116 µM (not active) | IC50 [25]: 15.7 µM (active) | IC50 [26]: 13.1 µM (active) | AC50 [27]: 3.15 µM (active)
